In patent US20240150368A1, “ULK INHIBITORS AND METHODS OF USE THEREOF” (Deciphera Pharmaceuticals, LLC, priority 2022, published 2024):

Tests used:
[1] = molecular target: T1, LRRK2 kinase (Homo sapiens, UniProt Q5S007); assay: Biochemical assay for LRRK2 (coupled pyruvate kinase/lactate dehydrogenase assay); conditions: 26.4 nM LRRK2, 1 mM ATP; read-out: LRRK2 (inhibition of LRRK2 kinase activity, IC50)
T1 construct: (residues 970-2528; ID NO; 3); purchased Thermo Fisher
Method: Biochemical Assay for LRRK2 (SEQ. ID NO. 3)
Activity of LRRK2 kinase was determined spectroscopically using a coupled pyruvate kinase/lactate dehydrogenase assay that continuously monitors the ATP hydrolysis-dependent oxidation of NADH (e.g., Schindler et al. Science (2000) 289: 1938-1942). Assays were conducted in 384-well plates (100 μL final volume) using 26.4 nM LRRK2 (Thermo Fisher), 0.1 mM peptide substrate (RLGRDKYKTLRQIRQ), 1.5 units pyruvate kinase, 2.1 units lactate dehydrogenase, 1 mM phosphoenol pyruvate, 0.28 mM NADH and 1 mM ATP in assay buffer (100 mM Tris, pH 7.5, 15 mM MgCl2, 0.5 mM DTT, 0.004% (w/v) BSA, and 0.004% Triton X-100). Inhibition of LRRK2 was measured by adding serial diluted test compound (final assay concentration of 1% DMSO). A decrease in absorption at 340 nm was monitored continuously for 6 h at 30° C. on a multi-mode microplate reader (BioTek). The reaction rate was calculated using the 2-3 h time frame. The reaction rate at each concentration of compound was converted to percent inhibition using controls (i.e., reaction with no test compound and reaction with a known inhibitor) and IC50 values were calculated using software routines in Prism (GraphPad software).

[2] = test system: ULK kinase substrate ATG13 (pS318-ATG13) in MiaPaCa-2 cells; assay: pATG13 levels of mutant KRas MiaPaCa-2 cells after treatment with ULK inhibitors in combination with trametinib (ELISA); type: cell-based, human
How it was run: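 MiaPaCa-2 cells grown overnight, then dosed with test compound titration plus trametinib (final 250 nM) or DMSO, overnight at 37° C. Lysate pS318-ATG13 measured by sandwich ELISA (total ATG13 capture, biotinylated pS318 detection, HRP/TMB, A450 minus A540); % phosphorylation vs control wells fitted to IC50.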

T1 sequence (Q5S007 with tags, fused parts or gaps): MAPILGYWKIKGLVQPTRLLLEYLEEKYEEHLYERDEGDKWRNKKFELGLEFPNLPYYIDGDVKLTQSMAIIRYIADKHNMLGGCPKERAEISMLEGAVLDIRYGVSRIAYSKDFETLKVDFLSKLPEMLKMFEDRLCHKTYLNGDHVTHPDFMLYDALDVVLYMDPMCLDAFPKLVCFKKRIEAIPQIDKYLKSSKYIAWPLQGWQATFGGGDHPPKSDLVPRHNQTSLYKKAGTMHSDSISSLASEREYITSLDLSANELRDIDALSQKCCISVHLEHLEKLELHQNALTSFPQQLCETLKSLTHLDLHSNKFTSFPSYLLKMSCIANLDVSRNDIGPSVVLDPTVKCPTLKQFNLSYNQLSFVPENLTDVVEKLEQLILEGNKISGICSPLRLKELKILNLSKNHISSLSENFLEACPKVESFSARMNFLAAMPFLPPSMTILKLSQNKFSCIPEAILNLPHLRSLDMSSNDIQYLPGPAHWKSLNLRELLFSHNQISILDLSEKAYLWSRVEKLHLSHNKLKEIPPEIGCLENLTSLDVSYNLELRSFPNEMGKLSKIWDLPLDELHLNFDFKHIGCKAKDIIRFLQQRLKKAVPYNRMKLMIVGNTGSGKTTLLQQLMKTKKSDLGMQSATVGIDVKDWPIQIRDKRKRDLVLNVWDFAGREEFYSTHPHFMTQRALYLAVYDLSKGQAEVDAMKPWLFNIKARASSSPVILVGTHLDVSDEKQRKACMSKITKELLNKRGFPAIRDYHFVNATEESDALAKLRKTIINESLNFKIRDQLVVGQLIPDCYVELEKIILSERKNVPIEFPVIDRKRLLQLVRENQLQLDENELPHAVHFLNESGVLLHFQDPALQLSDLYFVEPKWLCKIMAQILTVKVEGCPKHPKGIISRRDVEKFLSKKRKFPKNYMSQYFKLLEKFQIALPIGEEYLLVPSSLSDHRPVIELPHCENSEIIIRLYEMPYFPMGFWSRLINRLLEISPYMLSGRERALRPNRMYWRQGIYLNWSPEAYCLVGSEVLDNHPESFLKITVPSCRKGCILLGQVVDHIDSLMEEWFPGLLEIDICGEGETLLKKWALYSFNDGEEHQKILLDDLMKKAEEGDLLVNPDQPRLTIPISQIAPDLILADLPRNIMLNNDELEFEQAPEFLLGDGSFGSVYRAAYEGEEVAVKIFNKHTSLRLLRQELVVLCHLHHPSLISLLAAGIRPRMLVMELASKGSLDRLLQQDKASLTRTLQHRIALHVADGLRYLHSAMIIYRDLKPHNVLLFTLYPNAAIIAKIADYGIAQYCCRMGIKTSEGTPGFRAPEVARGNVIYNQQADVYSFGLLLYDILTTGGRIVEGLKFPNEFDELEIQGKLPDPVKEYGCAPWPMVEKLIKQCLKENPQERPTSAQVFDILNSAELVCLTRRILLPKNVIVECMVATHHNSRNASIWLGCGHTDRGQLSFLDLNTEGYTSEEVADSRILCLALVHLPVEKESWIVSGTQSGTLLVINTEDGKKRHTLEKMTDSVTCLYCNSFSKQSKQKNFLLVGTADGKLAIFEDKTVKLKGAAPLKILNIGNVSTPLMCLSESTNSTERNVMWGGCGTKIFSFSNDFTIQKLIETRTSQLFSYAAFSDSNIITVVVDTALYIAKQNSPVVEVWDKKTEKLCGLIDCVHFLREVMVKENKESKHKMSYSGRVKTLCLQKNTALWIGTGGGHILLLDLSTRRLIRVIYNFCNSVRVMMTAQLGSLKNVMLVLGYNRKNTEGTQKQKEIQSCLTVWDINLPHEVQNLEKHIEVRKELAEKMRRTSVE

SMILES | IC50 [1] [nM] | IC50 [2] [nM]
CC/C(Nc1cnn(C2CCN(C(C)C)CC2)c1)=C1/C(=O)Nc2ccc(C(=O)NC[C@H]3CCCO3)cc21 [Example 1, (R,Z)-3-(1-((1-(1-isopropylpiperidin-4-yl)-1H-pyrazol-4-yl)amino)propylidene)-2-oxo-N-((tetrahydrofuran-2-yl)methyl)indoline-5-carboxamide] | 100 to 300 | ≤ 100
CC/C(Nc1ccc(N2C[C@H]3CN(C)C[C@H]3C2)cc1)=C1/C(=O)Nc2ccc(C(=O)NCC(C)C)cc21 [Example 63] | – | ≤ 100
CC/C(Nc1ccc(N2C[C@H]3CN(C)C[C@H]3C2)cc1)=C1/C(=O)Nc2ccc(C(=O)NC[C@H]3CCCO3)cc21 [Example 64] | – | ≤ 100
CC/C(Nc1ccc(N2CC3(CN(C)C3)C2)cc1)=C1/C(=O)Nc2ccc(C(=O)NCC(C)C)cc21 [Example 65] | – | ≤ 100
CC/C(Nc1ccc(N2CC3(CN(C)C3)C2)cc1)=C1/C(=O)Nc2ccc(C(=O)NC[C@H]3CCCO3)cc21 [Example 66] | – | ≤ 100
CC/C(Nc1ccc(N2CC3CC(C2)N3C)cc1)=C1/C(=O)Nc2ccc(C(=O)NCC(C)C)cc21 [Example 67] | – | ≤ 100
CC/C(Nc1ccc(N2CC3CC(C2)N3C)cc1)=C1/C(=O)Nc2ccc(C(=O)NC[C@H]3CCCO3)cc21 [Example 68] | – | ≤ 100
CC/C(Nc1ccc(N2CC3CC2CN3C)cc1)=C1/C(=O)Nc2ccc(C(=O)NCC(C)C)cc21 (centres unmarked) [Example 69] | – | ≤ 100
CC/C(Nc1ccc(N2CC3CC2CN3C)cc1)=C1/C(=O)Nc2ccc(C(=O)NC[C@H]3CCCO3)cc21 (some centres unmarked) [Example 70] | – | ≤ 100
CC/C(Nc1ccc(N2CC3CC2CN3C)cc1)=C1/C(=O)Nc2ccc(C(=O)NCC(F)(F)F)cc21 (centres unmarked) [Example 71] | – | ≤ 100
CC/C(Nc1ccc(N2CCN(C)CC2)nc1)=C1/C(=O)Nc2ccc(C(=O)NCC(F)(F)F)cc21 [Example 74] | – | ≤ 100
CC/C(Nc1ccc(N2CCN(C)CC2)cn1)=C1/C(=O)Nc2ccc(C(=O)NCC(F)(F)F)cc21 [Example 75] | ≤ 100 | ≤ 100
CC/C(Nc1cnn(C)c1)=C1/C(=O)Nc2ccc(C(=O)NCC(F)(F)F)cc21 [Example 77] | ≤ 100 | ≤ 100
CC/C(Nc1ccc(-c2nc(C)no2)cc1)=C1/C(=O)Nc2ccc(C(=O)NCC(F)(F)F)cc21 [Example 78] | ≤ 100 | 100 to 300
CC/C(Nc1ccc(-c2cn(C)nn2)cc1)=C1/C(=O)Nc2ccc(C(=O)NCC(F)(F)F)cc21 [Example 79] | – | ≤ 100
CC/C(Nc1cnn(C2CCN(C(C)C)CC2)c1)=C1/C(=O)Nc2ccc(C(=O)NC[C@H]3CC(F)(F)CO3)cc21 [Example 80] | – | ≤ 100
CC/C(Nc1cnn(C2CCN(C(C)C)CC2)c1)=C1/C(=O)Nc2ccc(C(=O)NCCOC(F)(F)F)cc21 [Example 82] | – | ≤ 100
CC/C(Nc1cnn(C2CCN(C(C)C)CC2)c1)=C1/C(=O)Nc2ccc(C(=O)NC[C@H]3CCCCO3)cc21 [Example 83] | – | ≤ 100
CC/C(Nc1cnn(C2CC3(C2)CN(C)C3)c1)=C1/C(=O)Nc2ccc(C(=O)NCC(F)(F)F)cc21 [Example 84] | ≤ 100 | ≤ 100
CC/C(Nc1ccc(N2CC3(COC3)C2)cc1)=C1/C(=O)Nc2ccc(C(=O)NCC(F)(F)F)cc21 [Example 85] | ≤ 100 | 100 to 300
CC/C(Nc1cnn(C2CN(C)C2)c1)=C1/C(=O)Nc2ccc(C(=O)NCC(F)(F)F)cc21 [Example 86] | 100 to 300 | ≤ 100
CC/C(Nc1cnn(C2CN(C)C2)c1)=C1/C(=O)Nc2ccc(C(=O)NCC(C)C)cc21 [Example 87] | – | ≤ 100
CC/C(Nc1cnn(C2CN(C3CCC3)C2)c1)=C1/C(=O)Nc2ccc(C(=O)NC[C@H]3CCCO3)cc21 [Example 88] | – | ≤ 100
CC/C(Nc1cnn(C2CN(C)C2)c1)=C1/C(=O)Nc2ccc(C(=O)NCCOC)cc21 [Example 89] | – | 100 to 300
CC/C(Nc1cnn(C2CN(CC)C2)c1)=C1/C(=O)Nc2ccc(C(=O)NC[C@H]3CCCO3)cc21 [Example 90] | – | ≤ 100
CC/C(Nc1cnn(C2CN(C(C)C)C2)c1)=C1/C(=O)Nc2ccc(C(=O)NC[C@H]3CCCO3)cc21 [Example 91] | – | ≤ 100
CC/C(Nc1ccc(N2CCN(C(C)C)CC2)cn1)=C1/C(=O)Nc2cc(F)c(C(=O)NCC(F)(F)F)cc21 [Example 92] | 300 to 600 | ≤ 100
